# Measured values published in US6503943B1, “Platinum complex, its preparation and therapeutic application” (priority 1998, dated 2003).
# Several values for one entry are separate records, joined by “and”; a condition that tells them apart may be missing. Equal values may be shown once.
# Tests used:
# [1] = system: mammal adenocarcinoma MC2111; test: Antitumor effect at animals with solid form of mammal adenocarcinoma MC2111 (Example 9); type: in vivo, mice DBA1; conditions: for Tumor mass (%) of control / Tumor mass, Arithm. mean: tumor size 14th day, mass from regression
# [2] = system: ascitic form of Ehrlich tumor (ATE); test: Antitumor effect at animals with ascitic form of Ehrlich tumor (ATE) (Example 11);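 on all read-outs here: half of each dose group killed on day 10, tumor mass taken as animal mass lost on ascites aspiration, ascitocrit by microhematocrit centrifuge, rest followed daily for survival versus reference group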; conditions: for Total ascitocrit (%) of control / Total ascitocrit (mass of cell fraction of a tumor), Arithm. mean / Tumor mass (%) of control / Tumor mass, Arithm. mean: dissection 10th day; for Evaluation of antitumor effect (survival time versus control), in words: p.o.×9, Platidiam 8 and 4 mg/kg s.c.×1, Tab. 8.1
# Method: After termination of application, one half of animals in each dosage group was destroyed at 10th day after inoculation in ether narcosis, the ascits were sucked out after laparotomy and the mass of a tumor at each of the animals was determined from the difference of mass before and after sucking out the ascit. Ascitocrit in ascitic liquor of single animals was determined on microhematocrit centrifuge in heparinized capillary tubes of 75 mm length. The value of “total ascitocrit”corresponding to a mass of cells in ascitic liquor has been determined from percentage of ascitocrit and mass of the tumor. Remaining animals were left for monitoring the survival time. In these animals, the survival time was monitored on daily basis. The dependence of the survival time value on the applied dose was evaluated in comparison with the reference group.
# The single estimated time points as biological responses were evaluated by a test of equivalence of two mean values (Student's t-test). Geometric mean was calculated from single values of survival time, arithmetic means were calculated from single values of tumor mass and total ascitocrit. Difference between mean values was evaluated by a test of equivalence of two mean values (Student's t-test) under presumption of normal probability distribution of mass values as well as of total ascitocrit values and of logarithmic/normal distribution of temporal values, all under presumption of possible unknown disseminations. Those diferences in mean values, whose values of a test criterium exceeded the critical value at the 5% and 1% significance level were evaluated as statistically significant and highly statistically significant, respectively.
# The optimum dosage has been calculated from values of survival time according to the proportional risk model of Cox (Carter et al., 1982). Parameters of Weinbull distribution and logarithmic transformation of introductory data were used for estimation of a basic and modified survival function from experimental data.
# leucaemia L1210 [3] = test: Antitumor effect at animals with leucaemia L1210, continual regimen (Example 7); type: in vivo, mice DBA2
# Gardner lymphosarcoma = test: Antitumor effect at animals with solid form of Gardner lymphosarcoma (Example 8); type: in vivo, mice C3H; conditions: 5th day, tumors weighed 14th day
# leucaemia L1210 [4] = test: Antitumor effect at animals with leucaemia L1210, intermitent administration 3x (Example 5); type: in vivo, mice DBA2; conditions: 1st, 5th and 9th day
# [5] = system: ascitic form of Ehrlich tumor (ATE); test: Antitumor effect at animals with ascitic form of Ehrlich tumor (ATE) (Example 10); type: in vivo, mice ICR; conditions: for Survival (in % of control) / Survival time, Geom. mean / Tumor mass (%) of control / Tumor mass, Arithm. mean: 1st day; for Tumor mass (%) of control / Tumor mass, Arithm. mean: dissection 10th day
# leucaemia L1210 [6] = test: Antitumor effect at animals with leucaemia L1210, single administration (Example 4); type: in vivo, mice DBA2; conditions: for Survival (in % of control) / Survival time, Geom. mean: 1st day
# leucaemia L1210 [7] = test: Antitumor effect at animals with leucaemia L1210, continual versus intermitent regimen (Example 6); type: in vivo, mice DBA2; conditions: for Survival (in % of control) / Survival time, Geom. mean: 1st day
# [8] = 3 mg/kg/day p.o. 9x, 5th-13 day
# [9] = 6 mg/kg/day p.o. 9x, 5th-13 day
# [10] = 12 mg/kg/day p.o. 9x, 5th-13 day
# [11] = 3 mg/kg/day p.o. 9x, 1th-9th day
# [12] = 6 mg/kg/day p.o. 9x, 1th-9th day
# [13] = 12 mg/kg/day p.o. 9x, 1th-9th day
smiles,measurement,setting,value
"CC(=O)[O][Pt]([NH2])([Cl])([Cl])([NH]C12CC3CC(C)(CC(C)(C3)C1)C2)[O]C(C)=O [LA-15, af-bis(Acetato)-b-(1amino-3.5-dimethyladamantane)-c-ammin-de-dichloroplatinum (IV) Complex]",Survival (in % of control),[1]; [8],117%
same,"Survival time, Geom. mean",[1]; [8],25.4 days
same,Tumor mass (%) of control,[1]; [8],90%
same,"Tumor mass, Arithm. mean",[1]; [8],4.19 g
same,Survival (in % of control),[1]; [9],127%
same,"Survival time, Geom. mean",[1]; [9],27.6 days
same,Tumor mass (%) of control,[1]; [9],85%
same,"Tumor mass, Arithm. mean",[1]; [9],3.95 g
same,Survival (in % of control),[1]; [10],118%
same,"Survival time, Geom. mean",[1]; [10],25.5 days
same,Tumor mass (%) of control,[1]; [10],80%
same,"Tumor mass, Arithm. mean",[1]; [10],3.74 g
same,Survival (in % of control),[2]; [11],99%
same,"Survival time, Geom. mean",[2]; [11],8.8 days
same,Total ascitocrit (%) of control,[2]; [11],123%
same,"Total ascitocrit (mass of cell fraction of a tumor), Arithm. mean",[2]; [11],0.84 g
same,Tumor mass (%) of control,[2]; [11],89%
same,"Tumor mass, Arithm. mean",[2]; [11],3.51 g
same,Survival (in % of control),[2]; [12],108%
same,"Survival time, Geom. mean",[2]; [12],9.6 days
same,Total ascitocrit (%) of control,[2]; [12],59%
same,"Total ascitocrit (mass of cell fraction of a tumor), Arithm. mean",[2]; [12],0.40 g
same,Tumor mass (%) of control,[2]; [12],53%
same,"Tumor mass, Arithm. mean",[2]; [12],2.08 g
same,"Mean value of the mass of cell fraction of the tumor (total ascitocrit) versus control, in words",[2]; 6 mg/kg/day p.o.×9,statistically significant lower
same,Survival (in % of control),[2]; [13],97%
same,"Survival time, Geom. mean",[2]; [13],8.6 days
same,Total ascitocrit (%) of control,[2]; [13],120%
same,"Total ascitocrit (mass of cell fraction of a tumor), Arithm. mean",[2]; [13],0.82 g
same,Tumor mass (%) of control,[2]; [13],96%
same,"Tumor mass, Arithm. mean",[2]; [13],3.77 g
same,"Evaluation of antitumor effect (survival time versus control), in words",[2],didnot increase the survival time statistically significant
same,Survival (in % of control),leucaemia L1210 [3]; [11],180%
same,"Survival time, Geom. mean",leucaemia L1210 [3]; [11],40.5 days
same,Survival (in % of control),leucaemia L1210 [3]; [12],217%
same,"Survival time, Geom. mean",leucaemia L1210 [3]; [12],48.8 days
same,Survival (in % of control),leucaemia L1210 [3]; [13],130%
same,"Survival time, Geom. mean",leucaemia L1210 [3]; [13],29.3 days
same,"Evaluation of antitumor effect (survival time versus control), in words","leucaemia L1210 [3]; in the dosages used, p.o.×9",antitumor effective
same,Increase of survival time value in comparison with the control group,"leucaemia L1210 [3]; in the dosages used, p.o.×9",130%
"N.N.[Cl][Pt][Cl] [Platidiam, cis-diammin-dichloroplatinum(II) complex]",Tumor mass (%) of control,Gardner lymphosarcoma; 2 mg/kg s.c. 1x,83%
same,"Tumor mass, Arithm. mean",Gardner lymphosarcoma; 2 mg/kg s.c. 1x,5.19 g
same,Tumor mass (%) of control,Gardner lymphosarcoma; 4 mg/kg s.c. 1x,59%
same,"Tumor mass, Arithm. mean",Gardner lymphosarcoma; 4 mg/kg s.c. 1x,3.68 g
same,Tumor mass (%) of control,Gardner lymphosarcoma; 8 mg/kg s.c. 1x,26%
same,"Tumor mass, Arithm. mean",Gardner lymphosarcoma; 8 mg/kg s.c. 1x,1.64 g
same,Tumor mass (%) of control,"[1]; 4 mg/kg s.c. 1x, 5th day",76%
same,"Tumor mass, Arithm. mean","[1]; 4 mg/kg s.c. 1x, 5th day",3.53 g
same,Tumor mass (%) of control,"[1]; 8 mg/kg s.c. 1x, 5th day",69%
same,"Tumor mass, Arithm. mean","[1]; 8 mg/kg s.c. 1x, 5th day",3.20 g
same,LTS - Long Term Survivors; the amount of animals destroyed at 120th day,"[1]; mouse, in vivo",1/10
same,Survival (in % of control),"[1]; mouse, in vivo",>162 2) % and >158 1) %
same,"Survival time, Geom. mean","[1]; mouse, in vivo",35.1 days and 34.3 days
same,"Evaluation of antitumor effect, in words","[1]; p.o.×9 12, 6, 3 mg/kg/day, Platidiam 8 and 4 mg/kg s.c. once",antitumor effective
same,Survival (in % of control),"[2]; 2 mg/kg s.c. 1x, 1st day",128%
same,"Survival time, Geom. mean","[2]; 2 mg/kg s.c. 1x, 1st day",11.4 days
same,Total ascitocrit (%) of control,"[2]; 2 mg/kg s.c. 1x, 1st day",115%
same,"Total ascitocrit (mass of cell fraction of a tumor), Arithm. mean","[2]; 2 mg/kg s.c. 1x, 1st day",0.79 g
same,Tumor mass (%) of control,"[2]; 2 mg/kg s.c. 1x, 1st day",72%
same,"Tumor mass, Arithm. mean","[2]; 2 mg/kg s.c. 1x, 1st day",2.83 g
same,Survival (in % of control),"[2]; 4 mg/kg s.c. 1x, 1st day",197%
same,"Survival time, Geom. mean","[2]; 4 mg/kg s.c. 1x, 1st day",17.5 days
same,Total ascitocrit (%) of control,"[2]; 4 mg/kg s.c. 1x, 1st day",116%
same,"Total ascitocrit (mass of cell fraction of a tumor), Arithm. mean","[2]; 4 mg/kg s.c. 1x, 1st day",0.80 g
same,Tumor mass (%) of control,"[2]; 4 mg/kg s.c. 1x, 1st day",90%
same,"Tumor mass, Arithm. mean","[2]; 4 mg/kg s.c. 1x, 1st day",3.53 g
same,Survival (in % of control),"[2]; 8 mg/kg s.c. 1x, 1st day",208%
same,"Survival time, Geom. mean","[2]; 8 mg/kg s.c. 1x, 1st day",18.5 days
same,Total ascitocrit (%) of control,"[2]; 8 mg/kg s.c. 1x, 1st day",100%
same,"Total ascitocrit (mass of cell fraction of a tumor), Arithm. mean","[2]; 8 mg/kg s.c. 1x, 1st day",0.68 g
same,Tumor mass (%) of control,"[2]; 8 mg/kg s.c. 1x, 1st day",60%
same,"Tumor mass, Arithm. mean","[2]; 8 mg/kg s.c. 1x, 1st day",2.36 g
same,"Evaluation of antitumor effect (survival time versus control), in words",[2],antitumor effective
same,LTS - Long Term Survivors (amount of surviving animals in a group),"leucaemia L1210 [3]; 4 mg/kg s.c. 1x, 1st day",5/10
same,Survival (in % of control),"leucaemia L1210 [3]; 4 mg/kg s.c. 1x, 1st day",>223%
same,"Survival time, Geom. mean","leucaemia L1210 [3]; 4 mg/kg s.c. 1x, 1st day",50.2 days
same,Increase of survival time value in comparison with the control group,leucaemia L1210 [3]; 4 mg/kg s.c.×1,123%
same,Survival (in % of control),leucaemia L1210 [4]; 1 mg/kg/day s.c. 3x,178%
same,"Survival time, Geom. mean",leucaemia L1210 [4]; 1 mg/kg/day s.c. 3x,28.0 days
same,Survival (in % of control),leucaemia L1210 [4]; 2 mg/kg/day s.c. 3x,168%
same,"Survival time, Geom. mean",leucaemia L1210 [4]; 2 mg/kg/day s.c. 3x,26.3 days
same,Survival (in % of control),leucaemia L1210 [4]; 4 mg/kg/day s.c. 3x,106%
same,"Survival time, Geom. mean",leucaemia L1210 [4]; 4 mg/kg/day s.c. 3x,16.6 days
same,Survival (in % of control),[5]; 2 mg/kg s.c. 1x,120%
same,"Survival time, Geom. mean",[5]; 2 mg/kg s.c. 1x,13.8 days
same,Tumor mass (%) of control,[5]; 2 mg/kg s.c. 1x,115%
same,"Tumor mass, Arithm. mean",[5]; 2 mg/kg s.c. 1x,3.06 g
same,Survival (in % of control),[5]; 4 mg/kg s.c. 1x,190%
same,"Survival time, Geom. mean",[5]; 4 mg/kg s.c. 1x,21.8 days
same,Tumor mass (%) of control,[5]; 4 mg/kg s.c. 1x,101%
same,"Tumor mass, Arithm. mean",[5]; 4 mg/kg s.c. 1x,2.68 g
same,Survival (in % of control),[5]; 8 mg/kg s.c. 1x,184%
same,"Survival time, Geom. mean",[5]; 8 mg/kg s.c. 1x,21.0 days
same,Tumor mass (%) of control,[5]; 8 mg/kg s.c. 1x,82%
same,"Tumor mass, Arithm. mean",[5]; 8 mg/kg s.c. 1x,2.16 g
same,"Significance of mean survival time increase in comparison with untreated control (p≦0.01), in words",[5]; Tab. 7-2,atatistically highly significant
same,Survival (in % of control),leucaemia L1210 [6]; 2.5 mg/kg s.c. 1x,112%
same,"Survival time, Geom. mean",leucaemia L1210 [6]; 2.5 mg/kg s.c. 1x,14.2 days
same,Survival (in % of control),leucaemia L1210 [6]; 5 mg/kg s.c. 1x,>132%
same,"Survival time, Geom. mean",leucaemia L1210 [6]; 5 mg/kg s.c. 1x,16.7 days
same,Increase of mean value of survival time against the control,"leucaemia L1210 [6]; 5 mg/kg s.c., single, not statistically significant",32%
same,Survival (in % of control),leucaemia L1210 [6]; 10 mg/kg s.c. 1x,48%
same,"Survival time, Geom. mean",leucaemia L1210 [6]; 10 mg/kg s.c. 1x,6.1 days
same,Survival (in % of control),leucaemia L1210 [7]; 2 mg/kg s.c. 1x,155%
same,"Survival time, Geom. mean",leucaemia L1210 [7]; 2 mg/kg s.c. 1x,17.9 days
same,Survival (in % of control),leucaemia L1210 [7]; 4 mg/kg s.c. 1x,174%
same,"Survival time, Geom. mean",leucaemia L1210 [7]; 4 mg/kg s.c. 1x,20.2 days
same,Survival (in % of control),leucaemia L1210 [7]; 8 mg/kg s.c. 1x,204%
same,"Survival time, Geom. mean",leucaemia L1210 [7]; 8 mg/kg s.c. 1x,23.7 days
same,"Evaluation of antitumor effect (survival time versus control), in words","leucaemia L1210 [7]; LA-12 6 mg/kg p.o.×9, Platidiam 8 and 4 mg/kg s.c.×1, LA-2 any of the dosage groups",antitumor effective
